Assay results from PMC6409085, “Three odorant-binding proteins are involved in the behavioral response of Sogatella furcifera to rice plant volatiles” (PeerJ, 2019).
pIC50: −log10 of the molar value. Values joined by “and” are separate entries in the source; they are usually repeats but may differ in a detail not shown here. Identical values can stand only once.

Columns and labels:
Assay in all cases: biochemical
Type in all cases: binding
[1] = target: SfurOBP1 (Sogatella furcifera, UniProt V5T8N5); conditions: for Fluorescence competitive binding assay, fluorescence intensity: OBP1, three replicate columns
SfurOBP1, sequence (V5T8N5 entry or part of it): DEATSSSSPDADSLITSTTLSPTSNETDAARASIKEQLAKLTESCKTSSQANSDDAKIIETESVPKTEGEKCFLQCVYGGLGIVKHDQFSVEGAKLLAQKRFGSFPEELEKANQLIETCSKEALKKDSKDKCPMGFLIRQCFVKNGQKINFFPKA
How it was run: (§1)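 Fluorescence competitive binding used 2.0 µM SfurOBP and 2.0 µM 1-NPN reporter in 50 mM Tris-HCl, pH 7.4, with odorants at 2-20 µM. Fluorescence was read 2 min after adding the odorant (excitation 337 nm, emission 390-490 nm), in triplicate. Ki was calculated from IC50 as IC50/(1 + [1-NPN]/K1-NPN).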

[2] = target: SfurOBP2 (Sogatella furcifera, UniProt V5T759)
SfurOBP2, sequence (V5T759 entry or part of it): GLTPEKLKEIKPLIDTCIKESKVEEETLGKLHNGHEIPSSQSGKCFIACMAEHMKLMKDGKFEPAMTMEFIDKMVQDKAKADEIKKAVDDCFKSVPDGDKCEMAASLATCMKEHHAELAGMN
How it was run: as §1

[3] = target: SfurOBP11 (Sogatella furcifera, UniProt V5T6E3)
SfurOBP11, sequence (V5T6E3 entry or part of it): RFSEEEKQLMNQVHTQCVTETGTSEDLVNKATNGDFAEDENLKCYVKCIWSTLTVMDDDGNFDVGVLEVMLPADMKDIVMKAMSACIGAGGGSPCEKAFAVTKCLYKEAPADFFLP
How it was run: as §1

[4] = target: SfurOBP3 (Sogatella furcifera, UniProt V5T818); conditions: for Fluorescence competitive binding assay, fluorescence intensity: OBP3, three replicate columns
SfurOBP3, sequence (V5T818 entry or part of it): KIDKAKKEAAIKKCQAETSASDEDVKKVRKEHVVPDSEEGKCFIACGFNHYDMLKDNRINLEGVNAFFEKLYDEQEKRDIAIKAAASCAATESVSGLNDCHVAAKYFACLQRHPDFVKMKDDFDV
How it was run: as §1

CCCCCCCCCCCCCCCC [n-hexadecane]
Fluorescence competitive binding assay, fluorescence intensity ([1]; ligand concentration 2 (μM)): 5137 and 5021 and 5229
Fluorescence competitive binding assay, fluorescence intensity ([1]; ligand concentration 4 (μM)): 5910 and 6306 and 5547
Fluorescence competitive binding assay, fluorescence intensity ([1]; ligand concentration 6 (μM)): 6300 and 6430 and 6367
Fluorescence competitive binding assay, fluorescence intensity ([1]; ligand concentration 8 (μM)): 6419 and 6500 and 6466
Fluorescence competitive binding assay, fluorescence intensity ([1]; ligand concentration 10 (μM)): 6532 and 6517 and 6502
Fluorescence competitive binding assay, fluorescence intensity ([1]; ligand concentration 12 (μM)): 6620 and 6292 and 6471
Fluorescence competitive binding assay, fluorescence intensity ([1]; ligand concentration 14 (μM)): 6713 and 6503 and 6353
Fluorescence competitive binding assay, fluorescence intensity ([1]; ligand concentration 16 (μM)): 6541 and 6507 and 6533
Fluorescence competitive binding assay, fluorescence intensity ([1]; ligand concentration 18 (μM)): 7558 and 7106 and 6654
Fluorescence competitive binding assay, fluorescence intensity ([1]; ligand concentration 20 (μM)): 6949 and 7724 and 7337
pIC50 ([1]; SfurOBP1, protein and 1-NPN both 2.0 µM, competitor 2-20 µM, read-out: IC50): < 4.70
pIC50 ([2]; SfurOBP2, protein and 1-NPN both 2.0 µM, competitor 2-20 µM, read-out: IC50): 4.76
Fluorescence competitive binding assay, OBP2 (raw fluorescence reading) ([2]; ligand concentration 2 (unit not given), replicate column 1 of 3): 13495
Fluorescence competitive binding assay, OBP2 (raw fluorescence reading) ([2]; ligand concentration 2 (unit not given), replicate column 2 of 3): 16165
Fluorescence competitive binding assay, OBP2 (raw fluorescence reading) ([2]; ligand concentration 2 (unit not given), replicate column 3 of 3): 17504
Fluorescence competitive binding assay, OBP2 (raw fluorescence reading) ([2]; ligand concentration 4 (unit not given), replicate column 1 of 3): 14292
Fluorescence competitive binding assay, OBP2 (raw fluorescence reading) ([2]; ligand concentration 4 (unit not given), replicate column 2 of 3): 14770
Fluorescence competitive binding assay, OBP2 (raw fluorescence reading) ([2]; ligand concentration 4 (unit not given), replicate column 3 of 3): 18258
Fluorescence competitive binding assay, OBP2 (raw fluorescence reading) ([2]; ligand concentration 6 (unit not given), replicate column 1 of 3): 13188
Fluorescence competitive binding assay, OBP2 (raw fluorescence reading) ([2]; ligand concentration 6 (unit not given), replicate column 2 of 3): 14373
Fluorescence competitive binding assay, OBP2 (raw fluorescence reading) ([2]; ligand concentration 6 (unit not given), replicate column 3 of 3): 14976
Fluorescence competitive binding assay, OBP2 (raw fluorescence reading) ([2]; ligand concentration 8 (unit not given), replicate column 1 of 3): 12682
Fluorescence competitive binding assay, OBP2 (raw fluorescence reading) ([2]; ligand concentration 8 (unit not given), replicate column 2 of 3): 13401
Fluorescence competitive binding assay, OBP2 (raw fluorescence reading) ([2]; ligand concentration 8 (unit not given), replicate column 3 of 3): 14572
Fluorescence competitive binding assay, OBP2 (raw fluorescence reading) ([2]; ligand concentration 10 (unit not given), replicate column 1 of 3): 12390
Fluorescence competitive binding assay, OBP2 (raw fluorescence reading) ([2]; ligand concentration 10 (unit not given), replicate column 2 of 3): 12956
Fluorescence competitive binding assay, OBP2 (raw fluorescence reading) ([2]; ligand concentration 10 (unit not given), replicate column 3 of 3): 13308
Fluorescence competitive binding assay, OBP2 (raw fluorescence reading) ([2]; ligand concentration 12 (unit not given), replicate column 1 of 3): 11320
Fluorescence competitive binding assay, OBP2 (raw fluorescence reading) ([2]; ligand concentration 12 (unit not given), replicate column 2 of 3): 12682
Fluorescence competitive binding assay, OBP2 (raw fluorescence reading) ([2]; ligand concentration 12 (unit not given), replicate column 3 of 3): 13112
Fluorescence competitive binding assay, OBP2 (raw fluorescence reading) ([2]; ligand concentration 14 (unit not given), replicate column 1 of 3): 11586
Fluorescence competitive binding assay, OBP2 (raw fluorescence reading) ([2]; ligand concentration 14 (unit not given), replicate column 2 of 3): 11754
Fluorescence competitive binding assay, OBP2 (raw fluorescence reading) ([2]; ligand concentration 14 (unit not given), replicate column 3 of 3): 12906
Fluorescence competitive binding assay, OBP2 (raw fluorescence reading) ([2]; ligand concentration 16 (unit not given), replicate column 1 of 3): 10605
Fluorescence competitive binding assay, OBP2 (raw fluorescence reading) ([2]; ligand concentration 16 (unit not given), replicate column 2 of 3): 10448
Fluorescence competitive binding assay, OBP2 (raw fluorescence reading) ([2]; ligand concentration 16 (unit not given), replicate column 3 of 3): 11282
Fluorescence competitive binding assay, OBP2 (raw fluorescence reading) ([2]; ligand concentration 18 (unit not given), replicate column 1 of 3): 14498
Fluorescence competitive binding assay, OBP2 (raw fluorescence reading) ([2]; ligand concentration 18 (unit not given), replicate column 2 of 3): 14899
Fluorescence competitive binding assay, OBP2 (raw fluorescence reading) ([2]; ligand concentration 18 (unit not given), replicate column 3 of 3): 13250
Fluorescence competitive binding assay, OBP2 (raw fluorescence reading) ([2]; ligand concentration 20 (unit not given), replicate column 1 of 3): 13545
Fluorescence competitive binding assay, OBP2 (raw fluorescence reading) ([2]; ligand concentration 20 (unit not given), replicate column 2 of 3): 12591
Fluorescence competitive binding assay, OBP2 (raw fluorescence reading) ([2]; ligand concentration 20 (unit not given), replicate column 3 of 3): 11415
pIC50 ([3]; SfurOBP11, protein and 1-NPN both 2.0 µM, competitor 2-20 µM, read-out: IC50): < 4.70
Fluorescence intensity, fluorescence competitive binding assay, OBP11 ([3]; ligand concentration 2, replicate 1): 21809
Fluorescence intensity, fluorescence competitive binding assay, OBP11 ([3]; ligand concentration 2, replicate 2): 24436
Fluorescence intensity, fluorescence competitive binding assay, OBP11 ([3]; ligand concentration 2, replicate 3): 21028
Fluorescence intensity, fluorescence competitive binding assay, OBP11 ([3]; ligand concentration 4, replicate 1): 21555
Fluorescence intensity, fluorescence competitive binding assay, OBP11 ([3]; ligand concentration 4, replicate 2): 21532
Fluorescence intensity, fluorescence competitive binding assay, OBP11 ([3]; ligand concentration 4, replicate 3): 20733
Fluorescence intensity, fluorescence competitive binding assay, OBP11 ([3]; ligand concentration 6, replicate 1): 20973
Fluorescence intensity, fluorescence competitive binding assay, OBP11 ([3]; ligand concentration 6, replicate 2): 20501
Fluorescence intensity, fluorescence competitive binding assay, OBP11 ([3]; ligand concentration 6, replicate 3): 20737
Fluorescence intensity, fluorescence competitive binding assay, OBP11 ([3]; ligand concentration 8, replicate 1): 20324
Fluorescence intensity, fluorescence competitive binding assay, OBP11 ([3]; ligand concentration 8, replicate 2): 20139
Fluorescence intensity, fluorescence competitive binding assay, OBP11 ([3]; ligand concentration 8, replicate 3): 20508
Fluorescence intensity, fluorescence competitive binding assay, OBP11 ([3]; ligand concentration 10, replicate 1): 20121
Fluorescence intensity, fluorescence competitive binding assay, OBP11 ([3]; ligand concentration 10, replicate 2): 20422
Fluorescence intensity, fluorescence competitive binding assay, OBP11 ([3]; ligand concentration 10, replicate 3): 20353
Fluorescence intensity, fluorescence competitive binding assay, OBP11 ([3]; ligand concentration 12, replicate 1): 19850
Fluorescence intensity, fluorescence competitive binding assay, OBP11 ([3]; ligand concentration 12, replicate 2): 19980
Fluorescence intensity, fluorescence competitive binding assay, OBP11 ([3]; ligand concentration 12, replicate 3): 19737
Fluorescence intensity, fluorescence competitive binding assay, OBP11 ([3]; ligand concentration 14, replicate 1): 21701
Fluorescence intensity, fluorescence competitive binding assay, OBP11 ([3]; ligand concentration 14, replicate 2): 22333
Fluorescence intensity, fluorescence competitive binding assay, OBP11 ([3]; ligand concentration 14, replicate 3): 21069
Fluorescence intensity, fluorescence competitive binding assay, OBP11 ([3]; ligand concentration 16, replicate 1): 21665
Fluorescence intensity, fluorescence competitive binding assay, OBP11 ([3]; ligand concentration 16, replicate 2): 22169
Fluorescence intensity, fluorescence competitive binding assay, OBP11 ([3]; ligand concentration 16, replicate 3): 22138
Fluorescence intensity, fluorescence competitive binding assay, OBP11 ([3]; ligand concentration 18, replicate 1): 22525
Fluorescence intensity, fluorescence competitive binding assay, OBP11 ([3]; ligand concentration 18, replicate 2): 23830
Fluorescence intensity, fluorescence competitive binding assay, OBP11 ([3]; ligand concentration 18, replicate 3): 23178
Fluorescence intensity, fluorescence competitive binding assay, OBP11 ([3]; ligand concentration 20, replicate 1): 23218
Fluorescence intensity, fluorescence competitive binding assay, OBP11 ([3]; ligand concentration 20, replicate 2): 23600
Fluorescence intensity, fluorescence competitive binding assay, OBP11 ([3]; ligand concentration 20, replicate 3): 23432
Fluorescence competitive binding assay, fluorescence intensity ([4]; ligand concentration 2): 69046 and 56769 and 63691
Fluorescence competitive binding assay, fluorescence intensity ([4]; ligand concentration 4): 61024 and 72407 and 63576
Fluorescence competitive binding assay, fluorescence intensity ([4]; ligand concentration 6): 62953 and 54664 and 55739
Fluorescence competitive binding assay, fluorescence intensity ([4]; ligand concentration 8): 48630 and 46017 and 57385
Fluorescence competitive binding assay, fluorescence intensity ([4]; ligand concentration 10): 48455 and 41384 and 49192
Fluorescence competitive binding assay, fluorescence intensity ([4]; ligand concentration 12): 44417 and 51591 and 51023
Fluorescence competitive binding assay, fluorescence intensity ([4]; ligand concentration 14): 42917 and 40156 and 40042
Fluorescence competitive binding assay, fluorescence intensity ([4]; ligand concentration 16): 37264 and 50015 and 45340
Fluorescence competitive binding assay, fluorescence intensity ([4]; ligand concentration 18): 66503 and 59244 and 47400
Fluorescence competitive binding assay, fluorescence intensity ([4]; ligand concentration 20): 55843 and 55740 and 43544
pIC50 ([4]; SfurOBP3, protein and 1-NPN both 2.0 µM, competitor 2-20 µM, read-out: IC50): < 4.70
